SMILES strings stand for the structures. Activity calls are given as the source filed them. The calls are words filed in the database; no cut-off is given here. A value given as a limit tells only on which side of the number the result lay.

The text below walks through data of ChEMBL document CHEMBL4411300 (Eur J Med Chem, 2019).

Data set [1] can be described thus: Hepatotoxicity in Balb/c mouse infected with Trypanosoma cruzi MHOM/Pe/2011/Arequipa DTU 5 trypomastigotes assessed as increase in alkaline phosphatase level at 20 mg/kg, po once daily for 5 consecutive days starting from day 75 post infection measured on day 127 post infection relative to control. Conditions: in vivo. It is filed as toxicity, organism-based.
In data set [2] the test system is Trypanosoma cruzi. Description: Antitrypanosomal activity against Trypanosoma cruzi MHOM/Pe/2011/Arequipa DTU 5 trypomastigotes infected in Balb/c mouse assessed as parasite-free oesophagus at 20 mg/kg, po pretreated once daily for 5 consecutive days starting from day 75 post infection followed by cyclophosphamide-induced immunosuppression on day 100 post infection every 4 days for a maximum of 3 doses measured on day 127 post infection by PCR method. It is filed as functional, organism-based.

Data set [3] deals with Trypanosoma cruzi. Description: Antitrypanosomal activity against Trypanosoma cruzi MHOM/Pe/2011/Arequipa DTU 5 trypomastigotes infected in Balb/c mouse assessed as parasite-free heart at 20 mg/kg, po pretreated once daily for 5 consecutive days starting from day 75 post infection followed by cyclophosphamide-induced immunosuppression on day 100 post infection every 4 days for a maximum of 3 doses measured on day 127 post infection by PCR method. It is filed as functional, organism-based.

Data set [4] deals with Trypanosoma cruzi. Description: Antitrypanosomal activity against Trypanosoma cruzi MHOM/Pe/2011/Arequipa DTU 5 trypomastigotes infected in Balb/c mouse assessed as parasite-free lungs at 20 mg/kg, po pretreated once daily for 5 consecutive days starting from day 75 post infection followed by cyclophosphamide-induced immunosuppression on day 100 post infection every 4 days for a maximum of 3 doses measured on day 127 post infection by PCR method. Type of data set: functional, organism-based.

The nature of data set [5]: Hepatotoxicity in Balb/c mouse infected with Trypanosoma cruzi MHOM/Pe/2011/Arequipa DTU 5 trypomastigotes assessed as decrease in ratio of serum AST to GOT level at 20 mg/kg, po once daily for 5 consecutive days starting from day 75 post infection measured on day 127 post infection relative to control. It is filed as toxicity, organism-based. Also noted: scale not given: the % may be the effect or the level left. Conditions: in vivo.

Data set [6] in a line: Hepatotoxicity in Balb/c mouse infected with Trypanosoma cruzi MHOM/Pe/2011/Arequipa DTU 5 trypomastigotes assessed as change in total bilirubin level at 20 mg/kg, po once daily for 5 consecutive days starting from day 75 post infection measured on day 81 post infection (reference value: 0.25 mg/dl). It is filed as toxicity, organism-based. Conditions: in vivo.
In data set [7] the test system is Trypanosoma cruzi. As to the kind of experiment: Trypanocidal activity against Trypanosoma cruzi MHOM/Pe/2011/Arequipa DTU 5 amastigotes infected in African green monkey Vero cells assessed as infected cells at 50 uM after 72 hrs by Giemsa-staining based assay relative to control. Type of data set: functional.
The subject of data set [8] is Trypanosoma cruzi. As to the kind of experiment: Antitrypanosomal activity against Trypanosoma cruzi MHOM/Pe/2011/Arequipa DTU 5 trypomastigotes infected in Balb/c mouse assessed as reduction in parasitaemia level at 20 mg/kg, po once daily for 5 consecutive days starting from day 10 post infection measured every 2 to 3 days up to day 50 post infection starting from day 7 post infection by Neubauer chamber method. Type of data set: functional, organism-based.

The nature of data set [9]: Cardiotoxicity in Balb/c mouse infected with Trypanosoma cruzi MHOM/Pe/2011/Arequipa DTU 5 trypomastigotes assessed as change in serum LDH level at 20 mg/kg, po once daily for 5 consecutive days starting from day 75 post infection measured on day 127 post infection (reference value: 6679 U/L). It is filed as toxicity, organism-based. Conditions: in vivo.
A short description of data set [10]: Hepatotoxicity in Balb/c mouse infected with Trypanosoma cruzi MHOM/Pe/2011/Arequipa DTU 5 trypomastigotes assessed as decrease in total bilirubin level at 20 mg/kg, po once daily for 5 consecutive days starting from day 75 post infection measured on day 127 post infection relative to control. The following applies: in vivo. It is filed as toxicity, organism-based. On the set-up: scale not given: the % may be the effect or the level left.

On to `O=C(Cn1ccnc1[N+](=O)[O-])NCc1ccccc1` [BENZNIDAZOLE], for which the Activity result in data set [1] is “<= 20%”.
For the molecule `Cl.Cl.Cl.NCCN(CCN)CCNCc1ccc2c(c1)Cc1ccccc1-2`, the result in [2], in data set [3] and in [4] was Active. Moreover, the values for the Activity entry in data set [5] and in [6] were “<= 10%” and 0.25 mg/dL, respectively.
As for `Cl.Cl.Cl.Cl.Cl.Cl.c1ccc2nc(CNCCN(CCNCc3ccc4ccccc4n3)CCNCc3ccc4ccccc4n3)ccc2c1`, the Activity in [7] is recorded as 0%; in [9], 6679 U/L; in [10] it was “<= 10%”. Also, the outcome in data set [8] was inactive.
